According to US20140336182A1, “Aurora Kinase Modulators and Method of Use” (Amgen Inc., priority 2013, published 2014):

Test system: HeLa cells
Test: HeLa cell 24 hr ploidy assay (DNA content)
Format: cell-based
Settings: Homo sapiens, HeLa, 4N ploidy, average, read-out: 24h_4NPloidy EC50_IP (uM Avg)
Summary of the method: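 HeLa cells (1×10^4/well, MEM+10% FBS) cultured 24 h, treated with serially diluted compounds (0.25% DMSO final), then fixed, permeabilized and stained with Hoechst 33342 (0.5 ug/ml). Imaging quantified % 4N and >4N cells; EC50 IP and EC50 transit derived from dose curves.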

EC50 [µM] | SMILES
0.171 | NC(=O)c1cc2nccc(Oc3ccc(Nc4nnc(-c5ccccc5)c5ccccc45)cc3)c2s1 [Example 46, 7-(4-(4-phenylphthalazin-1-ylamino)phenoxy)thieno[3,2-b]pyridine-2-carboxamide]
0.057 | COc1cccc(-c2nnc(Nc3ccc(Oc4ccnc5cc(OC)cnc45)cc3)c3ccccc23)c1 [compound 139]
0.02 | COc1ccc2c(Oc3ccc(Nc4nnc(-c5cccc(OC)n5)c5ccccc45)cc3)ccnc2c1 [compound 100]
0.028 | COc1cccc(-c2nnc(Nc3ccc(Oc4ccnc5cc(C#N)ccc45)cc3)c3ccccc23)n1 [compound 102]
0.007 | COc1cnc2c(Oc3ccc(Nc4nnc(-c5ccc6occc6c5)c5ccccc45)cc3)ccnc2c1 [compound 159]
0.116 | Fc1cc(Nc2nnc(-c3ccccc3)c3ccccc23)ccc1Oc1ccnc2ccccc12 [compound 115]
0.077 | COc1cc2ncnc(Oc3ccc(Nc4nnc(-c5cc(C)ccn5)c5ccccc45)cc3)c2cc1OC [compound 123]
0.487 | COc1cnc2c(Oc3ccc(Nc4nnc(-c5cc(F)ccc5OC)c5ccccc45)cc3)ccnc2c1 [compound 80]
0.057 | COc1cnc2c(Oc3ccc(Nc4nnc(-c5ccc(C(F)(F)F)cc5)c5ccccc45)cc3)ccnc2c1 [compound 146, N-(4-((7-(methyloxy)-1,5-naphthyridin-4-yl)oxy)phenyl)-4-(4-(trifluoromethyl)phenyl)-1-phthalazinamine]
0.025 | COc1cc2nccc(Nc3ccc(Nc4nnc(-c5ccccc5)c5ccccc45)cc3)c2cn1 [compound 124, N-(7-(methyloxy)-1,6-naphthyridin-4-yl)-N′-(4-phenyl-1-phthalazinyl)-1,4-benzenediamine]
0.11 | COc1ccc2c(Oc3ccc(Nc4nnc(-c5cc(C)ccn5)c5ccccc45)cc3)ccnc2c1 [compound 118]
0.054 | COc1cnc2c(Oc3ccc(Nc4nnc(N5CCN6CCCC6C5)c5ccccc45)cc3)ccnc2c1 (centres unmarked) [compound 92]

Same assay, conditions: Homo sapiens, HeLa, HeLa cells, 4N ploidy, average, read-out: 24h_4NPloidy EC50_IP (uM Avg)

EC50 [µM] | SMILES
0.004 | COc1cnc2c(Sc3ccc(Nc4nnc(-c5cc(C)cs5)c5ccccc45)cc3)ccnc2c1 [compound 271, N-(4-(7-methoxy-1,5-naphthyridin-4-ylthio)phenyl)-4-(4-methylthiophen-2-yl)phthalazin-1-amine]
0.025 | c1ccc(-c2nnc(Nc3ccc(Sc4ccnc5c4CCCN5)cc3)c3ccccc23)cc1 [compound 577]
> 1.2 | COc1cnc2c(Oc3ccc(Nc4nnc(-c5ccnn5C)c5ccccc45)cc3)ccnc2c1 [compound 223]
0.036 | COc1cc(OC)c2c(Sc3ccc(Nc4nnc(-c5ccccc5)c5ccccc45)cc3)ncnc2c1 [compound 581]
0.014 | COc1cnc2c(Sc3ccc(Nc4nnc(N5CCN(C)CC5)c5ccccc45)cc3)ccnc2c1 [compound 503]
0.202 | CCc1cc(-c2ccc3c(c2)OCO3)nnc1Nc1ccc(Oc2ccnc3cc(OC)cnc23)cc1 [compound 594]
0.054 | Fc1cc(F)c2c(Oc3ccc(Nc4nnc(-c5ccccc5)c5ccccc45)cc3)ccnc2c1 [compound 276]
0.033 | COc1cnc2c(Oc3ccc(Nc4nnc(-c5ccc(N(C)C)cc5)c5ccccc45)cc3)ccnc2c1 [compound 194]
0.001 | Cc1csc(-c2nnc(Nc3ccc(Sc4ccnc5cccnc45)cc3)c3ccccc23)c1 [compound 336]
0.029 | CCc1cc(-c2ccccc2)nnc1Nc1ccc(Sc2ccnc3cc(OC)cnc23)cc1 [compound 274, 4-ethyl-N-(4-(7-methoxy-1,5-naphthyridin-4-ylthio)phenyl)-6-phenylpyridazin-3-amine]
0.007 | COc1cnc2c(Sc3ccc(Nc4nnc(N5CCN6C[C@H](F)C[C@H]6C5)c5ccccc45)cc3)ccnc2c1 [compound 600]
0.003 | COCCn1ccc2nccc(Sc3ccc(Nc4nnc(-c5ccc(Cl)cc5)c5ccccc45)cc3)c21 [compound 469]
0.03 | O=C(c1cc2nccc(Sc3ccc(Nc4nnc(-c5ccc(Cl)cc5)c5ccccc45)cc3)c2s1)N1CCOCC1 [compound 314]
0.023 | COCCOc1cc(-c2nnc(Nc3ccc(Oc4ccnc5cc(OC)cnc45)cc3)c3ccccc23)ccc1C [Example 395, N-(4-(7-Methoxy-1,5-naphthyridin-4-yloxy)phenyl)-4-(3-(2-methoxyethoxy)-4-methylphenyl)phthalazin-1-amine]
0.004 | COc1cc2ncnc(Sc3ccc(Nc4nnc(-c5ccc(Cl)cc5)c5ccccc45)cc3)c2cc1OC [compound 418]
> 1.2 | COc1cnc2c(Oc3ccc(Nc4nnc(-c5c(C)nn(C)c5C)c5ccccc45)cc3)ccnc2c1 [compound 261]
≥ 1.2 | Clc1ccc(-c2nnc(Nc3ccc(Cn4cnc5ccccc54)cc3)c3ccccc23)cc1 [compound 341]
0.031 | Clc1ccc(-c2nnc(Nc3ccc(Oc4ccnc5ccsc45)cc3)c3ccccc23)cc1 [compound 250, 4-(4-chlorophenyl)-N-(4-(thieno[3,2-b]pyridin-7-yloxy)phenyl)-1-phthalazinamine]
0.018 | COCCOc1nnc(Nc2ccc(Sc3ccnc4cc(OC)cnc34)cc2)c2ccccc12 [compound 515]
0.002 | Cc1ccc(-c2nnc(Nc3ccc(Oc4ccnc5cc(-c6cncn6C)sc45)cc3)c3ccccc23)cc1 [compound 203]
0.009 | COc1cnc2c(Sc3ccc(Nc4nnc(-c5cc(C)cs5)c5ccccc45)cc3F)ccnc2c1 [compound 528]
0.399 | COc1cnc2c(Oc3ccc(Nc4nnc(-c5ccc(N6CCCCC6)cc5)c5ccccc45)cc3)ccnc2c1 [compound 198]
0.009 | Cc1ccc(-c2nnc(Nc3ccc(Sc4ccnc5ccoc45)cc3)c3ccccc23)cc1N [compound 479]

EC50 [µM] | SMILES
0.013 | COc1cnc2c(Sc3ccc(Nc4nnc(N5CC[C@@H](OC)C5)c5ccccc45)cc3)ccnc2c1 [compound 540]
0.007 | COc1cc2nccc(Sc3ccc(Nc4nnc(-c5ccc(Cl)cc5)c5ccccc45)cc3)c2cn1 [compound 354]
0.061 | COc1cnc2c(Oc3ccc(Nc4nnc(-c5ccccc5)c5ccsc45)cc3)ccnc2c1 [compound 218, N-(4-((7-(methyloxy)-1,5-naphthyridin-4-yl)oxy)phenyl)-4-phenylthieno[2,3-d]pyridazin-7-amine]
0.009 | COc1cc2nccc(Sc3ccc(Nc4nnc(-c5cc(C)cs5)c5ccccc45)cc3)c2cn1 [compound 494]
0.002 | COc1ccc2nccc(Oc3ccc(Nc4nnc(-c5ccc6c(c5)OCO6)c5ccccc45)cc3)c2n1 [compound 551]
0.041 | COc1cnc2c(Sc3ccc(Nc4nnc(-c5ccccc5)c5ccccc45)cn3)ccnc2c1 [compound 413]
≥ 1.2 | c1ccc(-c2nnc(Nc3ccc(Cn4cnc5ccccc54)cc3)c3ccccc23)cc1 [compound 340]
0.25 | Cc1noc(-c2cc3nccc(Sc4ccc(Nc5nnc(-c6ccccc6)c6ccccc56)cc4)c3s2)n1 [compound 303, N-(4-((2-(3-methyl-1,2,4-oxadiazol-5-yl)thieno[3,2-b]pyridin-7-yl)thio)phenyl)-4-phenyl-1-phthalazinamine]
0.02 | Clc1ccc(-c2nnc(Nc3ccc(Sc4ccnc5ccoc45)cc3)c3ccccc23)cc1 [compound 465]
0.005 | COc1cnc2c(Sc3ccc(Nc4nnc(N5CCN6CC(F)(F)C[C@H]6C5)c5ccccc45)cc3)ccnc2c1 [compound 601]
0.037 | Cc1cc2nccc(Sc3ccc(Nc4nnc(-c5ccc(Cl)cc5)c5ccccc45)cc3)c2o1 [compound 491]
0.006 | COc1cnc2c(Oc3ccc(Nc4nnc(-c5ccc(C)cc5)c5ccccc45)cc3F)ccnc2c1 [compound 187]
0.056 | Cn1cc(-c2ccc3nccc(Oc4ccc(Nc5nnc(-c6ccccc6)c6ccccc56)cc4)c3c2)cn1 [Example 45, N-(4-(6-(1-Methyl-1H-pyrazol-4-yl)quinolin-4-yloxy)phenyl)-4-phenylphthalazin-1-amine]
0.187 | COc1cnc2c(Sc3ccc(Nc4nnc(C5=CCNCC5)c5ccccc45)cc3)ccnc2c1 [Example 401, N-(4-(7-Methoxy-1,5-naphthyridin-4-ylthio)phenyl)-4-(1,2,3,6-tetrahydropyridin-4-yl)phthalazin-1-amine]
0.094 | COc1cnc2c(Sc3ccc(Nc4nnc(OC(C)C)c5ccccc45)cc3)ccnc2c1 [compound 511]
0.138 | COc1cnc2c(Oc3ccc(Nc4nnc(-c5ccc(S(C)(=O)=O)cc5)c5ccccc45)cc3)ccnc2c1 [compound 263]
0.026 | Clc1ccc(-c2nnc(Nc3ccc(Oc4ncnc5ccccc45)cc3)c3ccccc23)cc1 [compound 562]
0.045 | COc1cnc2c(Oc3ccc(Nc4nnc(C#CC(C)(C)C)c5ccccc45)cc3)ccnc2c1 [Example 31, 4-(3,3-dimethylbut-1-ynyl)-N-(4-(7-methoxy-1,5-naphthyridin-4-yloxy)phenyl)phthalazin-1-amine]
0.032 | Cc1ccc(-c2nnc(Nc3ccc(Sc4ccnc5ccoc45)cc3)c3ccccc23)cn1 [compound 481]
0.06 | C#Cc1ccc(-c2nnc(Nc3ccc(Oc4ccnc5cc(OC)cnc45)cc3)c3ccccc23)cc1 [compound 287]
0.012 | COc1cnc2c(Oc3ccc(Nc4nnc(-c5cc(CO)cs5)c5ccccc45)cc3)ccnc2c1 [Example 407, (5-(4-(4-(7-Methoxy-1,5-naphthyridin-4-yloxy)phenylamino)phthalazin-1-yl)thiophen-3-yl)methanol]
0.196 | COc1cnc2c(Oc3ccc(Nc4nnc(-c5ccccc5)cc4C(C)C)cc3)ccnc2c1 [compound 234]
0.026 | CCc1ccc(-c2nnc(Nc3ccc(Oc4ccnc5cc(OC)cnc45)cc3)c3ccccc23)s1 [compound 229]

Same assay, conditions: Homo sapiens, HeLa, HeLa cells, average, read-out: 24h_4NPloidy EC50_IP (uM Avg)

EC50 [µM] | SMILES
> 1.2 | COc1ccc2c(C(C)c3ccc(Nc4nnc(-c5ccc(Cl)cc5)c5ccccc45)cc3)ccnc2c1 (centres unmarked) [compound 613]
